How the values were obtained:
apoE3*-Leiden mice = assay: Example 2 overview: high fat high cholesterol W-diet with 1% phytosphingosine, 4 weeks; type: in vivo
Description: The experiment as described in example 1 was repeated several times but using 1% phytosphingosine as a supplement to the W-diet. Each time, one group (control group, consisting of 6 or 12 apoE3*-Leiden mice) was fed the high fat high cholesterol W-diet. Another group (treatment group, consisting of 6 or 12 apoE3*-Leiden mice), was fed the same high fat high cholesterol W-diet diet supplemented with 1% phytosphingosine.
In all mice the following parameters were determined (after 4 hours of fasting) after a diet period of 4 weeks: plasma total cholesterol (PTC), plasma triglycerides (PTG), plasma free fatty acids (PFFA), liver total cholesterol (LTC), liver triglycerides (LTG), liver cholesteryl esters (LCE), serum amyloid A (SAA) (mg/ml), fibrinogen (in mg/ml), body weight (in g), liver weight (in g), heart weight (in g), ALAT (in U/L).

APOE*3Leiden mice = assay: Plasma parameters, body and liver weight after 1% PS-containing Western-type diet; type: in vivo
From the text: Sphingolipids: The three sphingolipids that represent the most abundant natural complex sphingolipid classes and the three of the simplest natural sphingolipids, the sphingoid bases that can be formed by enzymatic breakdown of complex sphingolipids in the intestine were used. Sphingomyelin (mainly N-palmitoyl-sphingosine-1-phosphocholine) from egg was obtained from Larodan Fine Chemicals (Stockholm, Sweden). Yeast-derived (semi)synthetic ceramide III (N-stearoyl-phytosphingosine), cerebroside (N-stearoyl-phytosphingosine-1-glucose) and phytosphingosine (PS) were from Cosmoferm BV (Delft, the Netherlands). Sphinganine and sphingosine were from Avanti Polar Lipids (Albaster, Ala.). Animals and diets: Heterozygous female APOE*3Leiden transgenic mice (Van Vlijmen et al. 1994. J. Clin. Invest 93:1403-1410.) (6 months old) were fed a Western-type diet (Hope Farms, Woerden, the Netherlands) containing 15% cocoa butter, 0.25% cholesterol, 1% corn oil, 40.5% sucrose, 20% acid casein, 10% corn starch and 5.95% cellulose (all w/w) for 5 weeks. The mice were allowed free access to food and water. Body weight and food intake were monitored weekly. In the first experiment (FIG. 2), the mice were randomized after these 5 weeks into 7 groups (n=6), based on plasma cholesterol, triglycerides, and body weight. Subsequently, the mice were fed for three weeks the same diet without or with 0.1% (w/w) phytosphingosine (PS), sphingosine, sphinganine, cerebroside, ceramide III, or sphingomyelin. Then, the sphingolipid dose was increased to 0.2% (w/w) for 3 weeks and finally to 0.4% (w/w) for 3 weeks. At randomization, and at 3, 6, and 9 weeks, tail vein blood samples were obtained after a 4 h-fast. In all subsequent experiments, female APOE*3Leiden transgenic mice (6 months old) were fed the Western-type diet for 5 weeks, and randomized as described. Subsequently, they were fed the Western-type diet for 5 weeks, or this diet supplemented with 1.0% (w/w) of PS, before being subjected to experimentation.
Plasma parameters: Tail blood samples were collected in EDTA-coated cups, or in paraoxon-coated capillaries to prevent lipolysis as described in Zambon et al. 1993 (Zambon et al. 1993. J. Lipid Res. 34:1021-1028). Plasma lipid parameters were determined using commercial kits for total cholesterol (C) Chol R1 from Roche Diagnostics, Mannheim, Germany), non-esterified free fatty acids (FFA) (NEFA-C; Wako chemicals, Neuss, Germany), Total triglycerides (TG) (Triglyceride GPO-Trinder; Sigma, St. Louis, Mo.), β-hydroxybutyrate (β-HB; Sigma) and ALAT (Reflotron GPT; Roche). Serum amyloid A (SAA) was measured by ELISA (Biosource, Nivelles, Belgium) and fibrinogen by sandwich ELISA, as described in Koopman et al., 2005 (Koopman et al. 2005. Fibrinol Proteol 11:19). For lipoproteins fractionation, groupwise-pooled plasma was size-fractionated by fast protein liquid chromatography (FPLC) on a Superose 6 column (Äkta; Amersham Pharmacia Biotech, Uppsala, Sweden). Fractions were assayed for total C and TG as described. Hepatic VLDL-TG production: The rate of hepatic VLDL-TG production, de novo apoB secretion, and VLDL composition were determined in overnight-fasted mice. Mice were anaesthetized with vetranquil/fentanyl/midazolam i.p., and injected i.v. with 0.1 ml PBS containing 100 μCi Tran^35S-label™ (ICN Biomedicals, Irvine, Calif.) to measure the de novo apoB synthesis. After 30 min, the animals received a Triton WR1339 injection (Tyloxapol, Sigma; 500 mg/kg body weight in 100 μl saline) to prevent systemic lipolysis of newly-secreted hepatic VLDL-TG (Aalto-Setala et al. 1992. J. Clin. Invest 90:1889-1900.27) Blood samples were drawn at 0, 15, 30, 60, and 90 min after Triton WR1339 injection and plasma TG concentrations were determined. After 90 min, the animals were sacrificed and blood was collected by retro-orbital bleeding for isolation of VLDL. […]

[1] = 1% PS in Western-type diet, 5 weeks
[2] = 1% PS in Western-type diet, 5 weeks, 4 h-fasted

## CCCCCCCCCCCCCC[C@@H](O)[C@@H](O)[C@@H](N)CO [PS, phytosphingosine]
apoE3*-Leiden mice; 1% PS in W-diet
  Plasma lipid levels (total cholesterol, triglycerides and free fatty acids) vs control: significantly decreased
apoE3*-Leiden mice; 1% PS in diet W
  Liver lipid levels vs control: significantly decreased
apoE3*-Leiden mice; 1% PS in the diet
  ALAT vs control: significantly lowered
apoE3*-Leiden mice; 1% phytosphingosine in W-diet
  Plasma level of fibrinogen vs control: increased
apoE3*-Leiden mice; 1% phytosphingosine in W-diet, 4 hours fasting
  Levels of serum amyloid A (SAA) vs control: significantly lower
APOE*3Leiden mice; 1% (w/w) PS in Western-type diet, five weeks
  Effects on body weight or food intake: No effects
APOE*3Leiden mice; [1]
  Body weight, % Δ vs control: n.s.
  HDL cholesterol (FPLC lipoprotein profile of pooled plasma): did not change
  Liver weight, % Δ vs control: −22%
  Plasma free fatty acids, % Δ vs control: −36%
  Plasma total cholesterol, % Δ vs control: −57%
  Plasma triglycerides, % Δ vs control: −58%
  Plasma β-hydroxybutyrate, % Δ vs control: n.s.
APOE*3Leiden mice; [2]
  Body weight: 22.6 ± 1.0 g
  Liver weight: 1.05 ± 0.08 g
  Plasma free fatty acids: 1.06 ± 0.14 mmol/L
  Plasma total cholesterol: 6.1 ± 1.1 mmol/L
  Plasma triglycerides: 1.19 ± 0.39 mmol/L
  Plasma β-hydroxybutyrate: 0.49 ± 0.39 mmol/L

— US7906488B2, “Sphingolipids in treatment and prevention of steatosis and of steatosis or of hepatotoxicity and its sequelae” (Nederlandse Organisatie Voor …, priority 2004, dated 2011)
